In the supplement of paper PMC13207355:
Where a name gives a salt, the structure may show the parent alone.

Experiments:
Settings in all cases: exposure time: 72 h
[1] = system: E13 (patient-derived glioblastoma stem cells of classical subtype); experiment: surviving fraction (nuclei count normalised to DMSO); higher = more cells surviving (less toxic)
[2] = system: E21 (patient-derived glioblastoma stem cells of mesenchymal subtype); experiment: as above
[3] = system: E28 (patient-derived glioblastoma stem cells of classical subtype); experiment: as above
[4] = system: E31 (patient-derived glioblastoma stem cells of proneural subtype); experiment: as above
[5] = system: E34 (patient-derived glioblastoma stem cells of proneural subtype); experiment: as above
[6] = system: E57 (patient-derived glioblastoma stem cells of mesenchymal subtype); experiment: as above
[7] = system: FT3469 (normal neural stem cell line); experiment: as above
[8] = system: E13; experiment: phenotypic distance (Euclidean, principal components) from DMSO controls (arbitrary units); higher = stronger morphological change
[9] = system: E21; experiment: as above
[10] = system: E28; experiment: as above
[11] = system: E31; experiment: as above
[12] = system: E34; experiment: as above
[13] = system: E57; experiment: as above
[14] = system: FT3469; experiment: as above
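Throughout, for phenotypic distance (Euclidean, principal components) from DMSO controls: cell Painting imaging in 384-well plates, CellProfiler features reduced to at least 20 principal components, Euclidean distance versus same-plate DMSO vehicle wells (0.1% v/v), median over six images per well.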
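Throughout, for surviving fraction (nuclei count normalised to DMSO): nuclei counted by high-content imaging of Hoechst-stained cells in laminin-coated 384-well plates, relative to 0.1% DMSO vehicle wells, with staurosporine as cell-death control.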

CNCCCC12CCC(c3ccccc31)c1ccccc12 [Maprotiline hydrochloride]
Settings	phenotypic distance	surviving fraction
[1], 4.1 nM	–	0.984
[1], 12.3 nM	–	1.05
[1], 37 nM	–	0.987
[1], 111.1 nM	–	1.05
[1], 333.3 nM	–	1.1
[1], 1000 nM	–	1.05
[1], 3000 nM	–	0.911
[2], 4.1 nM	–	1.04
[2], 12.3 nM	–	0.944
[2], 37 nM	–	0.982
[2], 111.1 nM	–	1.06
[2], 333.3 nM	–	1.02
[2], 1000 nM	–	1.03
[2], 3000 nM	–	1.06
[3], 4.1 nM	–	1.23
[3], 12.3 nM	–	0.929
[3], 37 nM	–	0.979
[3], 111.1 nM	–	1.21
[3], 333.3 nM	–	1.13
[3], 1000 nM	–	0.951
[3], 3000 nM	–	0.979
[4], 4.1 nM	–	1.07
[4], 12.3 nM	–	1.06
[4], 37 nM	–	1.02
[4], 111.1 nM	–	0.859
[4], 333.3 nM	–	1.18
[4], 1000 nM	–	1.05
[4], 3000 nM	–	1.01
[5], 4.1 nM	–	1.04
[5], 12.3 nM	–	0.869
[5], 37 nM	–	0.875
[5], 111.1 nM	–	1.01
[5], 333.3 nM	–	1.02
[5], 1000 nM	–	0.997
[5], 3000 nM	–	1.07
[6], 4.1 nM	–	1.06
[6], 12.3 nM	–	1.12
[6], 37 nM	–	1.09
[6], 111.1 nM	–	1.1
[6], 333.3 nM	–	0.986
[6], 1000 nM	–	0.93
[6], 3000 nM	–	1.09
[7], 4.1 nM	–	1.09
[7], 12.3 nM	–	1.18
[7], 37 nM	–	1.3
[7], 111.1 nM	–	1.07
[7], 333.3 nM	–	0.901
[7], 1000 nM	–	1.16
[7], 3000 nM	–	0.869
[8], 4.1 nM	0.553	–
[8], 12.3 nM	0.296	–
[8], 37 nM	0.356	–
[8], 111.1 nM	0.55	–
[8], 333.3 nM	0.608	–
[8], 1000 nM	0.471	–
[8], 3000 nM	0.392	–
[9], 4.1 nM	0.674	–
[9], 12.3 nM	1.04	–
[9], 37 nM	0.745	–
[9], 111.1 nM	1.03	–
[9], 333.3 nM	0.9	–
[9], 1000 nM	0.798	–
[9], 3000 nM	0.546	–
[10], 4.1 nM	0.756	–
[10], 12.3 nM	0.57	–
[10], 37 nM	0.744	–
[10], 111.1 nM	0.651	–
[10], 333.3 nM	0.753	–
[10], 1000 nM	0.525	–
[10], 3000 nM	0.615	–
[11], 4.1 nM	0.322	–
[11], 12.3 nM	0.404	–
[11], 37 nM	0.529	–
[11], 111.1 nM	0.826	–
[11], 333.3 nM	0.77	–
[11], 1000 nM	0.546	–
[11], 3000 nM	0.55	–
[12], 4.1 nM	0.824	–
[12], 12.3 nM	0.524	–
[12], 37 nM	0.568	–
[12], 111.1 nM	1.03	–
[12], 333.3 nM	0.644	–
[12], 1000 nM	1.11	–
[12], 3000 nM	0.788	–
[13], 4.1 nM	0.339	–
[13], 12.3 nM	0.804	–
[13], 37 nM	0.81	–
[13], 111.1 nM	0.882	–
[13], 333.3 nM	0.422	–
[13], 1000 nM	0.498	–
[13], 3000 nM	0.628	–
[14], 4.1 nM	0.707	–
[14], 12.3 nM	0.982	–
[14], 37 nM	0.677	–
[14], 111.1 nM	1.1	–
[14], 333.3 nM	0.895	–
[14], 1000 nM	1.08	–
[14], 3000 nM	0.56	–
